Results published in patent US9375000B2, “Pesticidal arylpyrrolidines” (Bayer Intellectual Property GmbH, priority 2011, dated 2016).
“And” between values parts separate entries of the source, which are not always exact repeats. Identical values can stand only once.

Tests used:
Type in all cases: in vivo
[1] = tested on: adult engorged female Boophilus microplus ticks; test: Test against Boophilus microplus (dip); settings: dip, after 7 days
Method: (§1) Solvent: dimethyl sulfoxide
To produce a suitable preparation of active compound, 10 mg of active compound are dissolved in 0.5 ml solvent, and the concentrate is diluted with water to the desired concentration. Eight to ten adult engorged female Boophilus microplus ticks are placed in perforated plastic beakers and immersed in aqueous compound solution for one minute. Ticks are transferred to a filter paper in a plastic tray. Egg deposition of fertile eggs is monitored after. After 7 days mortality in % is determined. 100% means that all the ticks have been killed; 0% means that none of the ticks have been killed.

[2] = tested on: Larvae of Spodoptera litura; test: Larvae of Spodoptera litura, method using artificial feeds; settings: artificial feed, after 7 days
How it was run: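 Compound formulated in dimethylformamide with polyoxyethylene alkyl phenyl ether emulsifier, water-diluted and poured onto artificial diet. Five 3rd-instar Spodoptera litura larvae per cup, held at 25° C and 50-60% humidity. Mortality after 7 days expressed as pesticidal ratio.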

[3] = tested on: Two-Spotted Spider Mite (Tetranychus urticae); test: Two-spotted spider mite (Tetranychus urticae) spray test on kidney bean; settings: after 7 days
How it was run: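 Kidney bean plants at the two-leaf stage carried 50-100 adult mites and were sprayed one day later with compound in DMF/polyoxyethylene alkyl phenyl ether diluted in water. Ammonium salt and penetration enhancer at 1000 ppm were added if needed. Acaricidal activity (% mites killed) was scored after 7 days in a greenhouse.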

[4] = tested on: Cucurbit Leaf Beetle (Aulacophora femoralis); test: Cucurbit leaf beetle (Aulacophora femoralis) cucumber leaf dip test; settings: after 7 days
How it was run: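 Cucumber leaves dipped in compound formulated with DMF and polyoxyethylene alkyl phenyl ether, diluted in water, with ammonium salt or ammonium salt plus penetration enhancer at 1000 ppm added if necessary; dried leaves placed on sterilized soil with five second-instar larvae. Kept at 25° C; larval mortality counted after 7 days.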

Thrips palmi = Thrips palmi spray test (THRIPL); settings: after 6 days
How it was run: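 Cucumber seedlings sprayed with compound formulated in DMF/polyoxyethylene alkyl phenyl ether and diluted in water, ammonium salt ± penetration enhancer at 1000 ppm added if needed. About 100 T. palmi eggs attached, plants held caged at 100% humidity, 23 °C. Percent activity scored from feeding damage after 6 days, 100 = no damage, 0 = as untreated.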

[5] = tested on: Tobacco Cutworm (Spodoptera litura) Larvae; test: Tobacco cutworm (Spodoptera litura) larvae, sweet potato leaf dip test; settings: active compound concentration 4 ppm; dead larvae after 7 days
Method: Unless not mentioned otherwise, the test solutions were prepared as follows:
Solvent: 3 parts by weight Dimethylformamide
Emulsifier: 1 part by weight Polyoxyethylene alkyl phenyl ether
In order to make an appropriate formulation of an active compound, 1 part by weight of the active compound is mixed with the above mentioned amount of solvent and emulsifier and the mixture is diluted with water to a prescribed concentration. Ammonium salt or ammonium salt and penetration enhancer in a dosage of 1000 ppm are added to the desired concentration if necessary.
Leaves of sweet potato were immersed in the test solution at the appropriate concentration, and the leaves were dried in air. The leaves were then placed in a petri dish having a diameter of 9 cm, and ten Spodoptera litura at third instar larvae were released therein. The petri dishes were placed in a temperature-controlled chamber at 25° C. After 2 days and 4 days more sweet potato leaves were added. After 7 days, the number of dead larvae was counted to calculate the insecticidal activity. An insecticidal activity of 100% means that all larvae were killed, whereas an insecticidal activity of 0% means that no larva was killed. In the current test, the results of two petri dishes for each treatment were averaged.

Ctenocephalides felis = test: Test against Ctenocephalides felis (CTECFE), blood feeding; settings: application rate 100 ppm in cattle blood; after 2 days
Method: as §1
To produce a suitable preparation of active compound, 10 mg of active compound are dissolved in 0.5 ml solvent, and the concentrate is diluted with cattle blood to the desired concentration. Approximately 20 adult unfed (Ctenocepahlides felis) are placed in flea chambers. The blood chamber, sealed with parafilm on the bottom, are filled with cattle blood supplied with compound solution and placed on top of the flea chamber, so that the fleas are able to suck the blood. The blood chamber is heated to 37° C. whereas the flea chamber is kept at room temperature.
After 2 days mortality in % is determined. 100% means that all the fleas have been killed; 0% means that none of the fleas have been killed.

Musca domestica = test: Test against Musca domestica; settings: application rate 100 ppm; after 2 days
Method: as §1
To produce a suitable preparation of active compound, 10 mg of active compound are dissolved in 0.5 ml solvent, and the concentrate is diluted with water to the desired concentration. Prior to the assay, a piece of kitchen sponge is soaked with a mixture of sugar and compound solution and placed into a container. 10 adults (Musca domestica) are placed into the container and closed with a perforated lid. After 2 days mortality in % is determined. 100% means that all the flies have been killed; 0% means that none of the flies have been killed.

[6] = active compound concentration 4 ppm
[7] = active compound concentration 20 ppm
[8] = active compound concentration 100 ppm

| Compound | acaricidal activity [3, 6] [%] | insecticidal activity (by feeding damage degree) (Thrips palmi; [7]) [%] | insecticidal activity [5] [%] | insecticidal activity [4, 7] [%] | acaricidal activity [3, 7] [%] | also measured |
| --- | --- | --- | --- | --- | --- | --- |
| CCC(=O)NCc1ccc(N2CCC(c3cc(C(F)(F)F)cc(C(F)(F)F)c3)(C(F)(F)F)C2O)cc1C(F)(F)F (mixture of isomers) [A1-57] | 100 | 100 | – | – | – | activity (mortality) ([1]; application rate 100 ppm): 90%; insecticidal activity (pesticidal ratio) [2, 6]: 100%; insecticidal activity [4, 6]: 100% |
| O=C(NCc1ccc(N2CCC(c3cc(Cl)cc(Cl)c3)(C(F)(F)F)C2O)cc1Br)C1CC1 (mixture of isomers) [A1-110] | 100 | 98 | 100 | 100 | – | activity (mortality) ([1]; application rate 100 ppm): 90% |
| O=C(CC(F)(F)F)NCc1ccc(N2CCC(c3cc(Cl)cc(Cl)c3)(C(F)(F)F)C2O)cc1Br (mixture of isomers) [A1-112] | 100 | 98 | 100 | 100 | – | – |
| CS(=O)(=O)CC(=O)NCc1ccc(N2CCC(c3cc(C(F)(F)F)cc(C(F)(F)F)c3)(C(F)(F)F)C2O)nc1Br (mixture of isomers) [A3-165] | 90 | – | – | 100 | – | activity (mortality) ([1]; application rate 100 ppm): 90%; insecticidal activity (pesticidal ratio) [2, 6]: 100%; insecticidal activity (pesticidal ratio) [2, 7]: 100%; insecticidal activity [4, 6]: 100% |
| C[S+]([O-])CC(=O)NCc1ccc(N2CCC(c3cc(C(F)(F)F)cc(C(F)(F)F)c3)(C(F)(F)F)C2O)cc1Cl (stereo not shown) [A1-32] | – | – | – | 100 | 100 | activity (mortality) ([1]; application rate 20 ppm): 95%; insecticidal activity (pesticidal ratio) [2, 7]: 100% |
| O=C(NCc1ccc(N2CCC(c3cc(F)cc(Cl)c3)(C(F)(F)F)C2O)cc1C(F)(F)F)C1CC1 (stereo not shown) [A1-242] | 100 | 90 | 100 | 100 | – | – |
| CC(=O)NCc1ccc(N2CCC(c3cc(Cl)c(F)c(Cl)c3F)(C(F)(F)F)C2O)cc1C(F)(F)F (stereo not shown) [A1-282] | 100 | – | 100 | 100 | – | activity (mortality) ([1]; application rate 100 ppm): 95% |
| CCC(=O)NCc1ccc(N2CCC(c3cc(Cl)c(Cl)c(Cl)c3)(C(F)(F)F)C2O)cc1 (stereo not shown) [A1-384] | 98 | 90 | 100 | 100 | – | – |
| CCCC(=O)NCc1ccc(N2CCC(c3cc(Cl)c(Cl)c(Cl)c3)(C(F)(F)F)C2O)nc1C(F)(F)F (stereo not shown) [A3-14] | 100 | – | – | 100 | 100 | insecticidal activity (pesticidal ratio) [2, 6]: 100%; insecticidal activity (pesticidal ratio) [2, 7]: 100%; activity (mortality) (Ctenocephalides felis): 95%; insecticidal activity [4, 6]: 100% |
| CCC(=O)NCc1ccc(N2CCC(c3cc(Cl)c(Cl)c(Cl)c3)(C(F)(F)F)C2O)nc1Cl (stereo not shown) [A3-101] | 100 | 98 | 100 | 100 | – | – |
| CCC(=O)NCc1ccc(N2CCC(c3cc(Cl)c(Cl)c(Cl)c3)(C(F)(F)F)C2O)nc1Br (stereo not shown) [A3-112] | – | – | – | 100 | 100 | insecticidal activity (pesticidal ratio) [2, 7]: 100%; activity (mortality) (Musca domestica): 90% |
| O=C(NCc1cnc(N2CCC(c3cc(Cl)cc(Cl)c3)(C(F)(F)F)C2O)nc1C(F)(F)F)C1CC1 (stereo not shown) [A4-5] | 100 | 90 | 100 | 100 | – | – |
| O=C(CC(F)(F)F)NCc1cnc(N2CCC(c3cc(Cl)cc(Cl)c3)(C(F)(F)F)C2O)nc1C(F)(F)F (stereo not shown) [A4-7] | 100 | 90 | 100 | 100 | – | – |
| CCC(=O)NCc1cnc(N2CCC(c3cc(Cl)c(F)c(Cl)c3F)(C(F)(F)F)C2O)nc1C(F)(F)F (stereo not shown) [A4-112] | 100 | 98 | 100 | 100 | – | – |
| CCC(=O)NCc1cnc(N2CCC(c3cc(Cl)c(Cl)c(Cl)c3)(C(F)(F)F)C2O)cc1C(F)(F)F (stereo not shown) [A5-13] | – | – | 100 | 100 | 100 | insecticidal activity (pesticidal ratio) [2, 6]: 100%; acaricidal activity [3, 8]: 98%; insecticidal activity (by feeding damage degree) (Thrips palmi; [8]): 100% and 90% |
| O=C(NCc1cnc(N2CCC(c3cc(Cl)c(Cl)c(Cl)c3)(C(F)(F)F)C2O)cc1C(F)(F)F)C1CC1 (stereo not shown) [A5-16] | – | – | 100 | 100 | 100 | insecticidal activity (by feeding damage degree) (Thrips palmi; [8]): 100% |
| O=C(CC(F)(F)F)NCc1cnc(N2CCC(c3cc(Cl)c(Cl)c(Cl)c3)(C(F)(F)F)C2O)cc1C(F)(F)F (stereo not shown) [A5-18] | – | – | 100 | 100 | 100 | activity (mortality) (Ctenocephalides felis): 90%; insecticidal activity (by feeding damage degree) (Thrips palmi; [8]): 100% |
| CS(=O)(=O)CC(=O)NCc1cnc(N2CCC(c3cc(Cl)c(Cl)c(Cl)c3)(C(F)(F)F)C2O)cc1C(F)(F)F (stereo not shown) [A5-22] | – | – | 100 | 100 | 100 | insecticidal activity (by feeding damage degree) (Thrips palmi; [8]): 98% |
| CCC(=O)NCc1cnc(N2CCC(c3cc(Cl)c(F)c(Cl)c3F)(C(F)(F)F)C2O)cc1C(F)(F)F (stereo not shown) [A5-79] | 100 | 90 | 100 | – | – | – |
